# Source: PubChem BioAssay (NCI)
#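 The concentration for 50% growth inhibition is given as GI50. TGI: total growth inhibition.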
# Tests used:
# Test in all cases: DTP human tumour cell line panel, 384-well format
# [1] = test system: 786-0 renal
# [2] = test system: A498 renal
# [3] = test system: A549 NSCLC
# [4] = test system: ACHN renal
# [5] = test system: BT-549 breast
# [6] = test system: CAKI-1 renal
# [7] = test system: CCRF-CEM leukemia
# [8] = test system: COLO 205 colon
# [9] = test system: DU-145 prostate
# [10] = test system: EKVX NSCLC
# [11] = test system: HCC-2998 colon
# [12] = test system: HCT-116 colon
# [13] = test system: HCT-15 colon
# [14] = test system: HL-60(TB) leukemia
# [15] = test system: HOP-62 NSCLC
# [16] = test system: HOP-92 NSCLC
# [17] = test system: HS 578T breast
# [18] = test system: HT29 colon
# [19] = test system: IGROV1 ovarian
# [20] = test system: KM12 colon
# [21] = test system: LOX IMVI melanoma
# [22] = test system: M14 melanoma
# [23] = test system: MALME-3M melanoma
# [24] = test system: MCF7 breast
# [25] = test system: MDA-MB-231 breast
# [26] = test system: MDA-MB-435 melanoma
# [27] = test system: MDA-MB-468 breast
# [28] = test system: MOLT-4 leukemia
# [29] = test system: NCI-H226 lung
# [30] = test system: NCI-H23 lung
# [31] = test system: NCI-H460 NSCLC
# [32] = test system: NCI-H522 lung
# [33] = test system: NCI/ADR-RES ovarian
# [34] = test system: OVCAR-3 ovarian
# [35] = test system: OVCAR-4 ovarian
# [36] = test system: OVCAR-5 ovarian
# [37] = test system: OVCAR-8 ovarian
# [38] = test system: PC-3 prostate
# [39] = test system: RPMI-8226 leukemia
# [40] = test system: RXF 393 renal
# [41] = test system: SF-268 CNS
# [42] = test system: SF-295 CNS
# [43] = test system: SF-539 CNS
# [44] = test system: SK-MEL-28 melanoma
# [45] = test system: SK-MEL-5 melanoma
# [46] = test system: SK-OV-3 ovarian
# [47] = test system: SN12C renal
# [48] = test system: SNB-19 CNS
# [49] = test system: SNB-75 CNS
# [50] = test system: SR leukemia
# [51] = test system: SW-620 colon
# [52] = test system: TK-10 renal
# [53] = test system: UACC-257 melanoma
# [54] = test system: UACC-62 melanoma
# [55] = test system: UO-31 renal
# [56] = test system: K-562 leukemia
# [57] = test system: NCI-H322M lung
# [58] = test system: SK-MEL-2 melanoma
# [59] = test system: U251 glioblastoma
compound,measurement,setting,value
CCN1C(=O)N(c2c(F)c(OC)cc(OC)c2F)Cc2cnc3[nH]c(CN4CCOCC4)cc3c21,GI50,[1],6.99 µM
same,TGI,[1],> 100 µM
same,GI50,[2],2.03 µM
same,TGI,[2],57.3 µM
same,GI50,[3],4.69 µM
same,TGI,[3],> 31.6 µM
same,GI50,[4],3.86 µM
same,TGI,[4],> 100 µM
same,GI50,[5],0.0807 µM
same,TGI,[5],7.02 µM
same,GI50,[6],1.03 µM
same,TGI,[6],> 31.4 µM
same,GI50,[7],5.26 µM
same,GI50,[8],> 100 µM
same,TGI,[8],> 100 µM
same,GI50,[9],3.85 µM
same,TGI,[9],> 100 µM
same,GI50,[10],> 81 µM
same,TGI,[10],> 100 µM
same,GI50,[11],6.61 µM
same,TGI,[11],> 100 µM
same,GI50,[12],3.84 µM
same,TGI,[12],> 100 µM
same,GI50,[13],3.17 µM
same,TGI,[13],> 100 µM
same,GI50,[14],3.28 µM
same,TGI,[14],12.5 µM
same,GI50,[15],4.98 µM
same,TGI,[15],> 100 µM
same,GI50,[16],3.5 µM
same,TGI,[16],23.6 µM
same,GI50,[17],1.06 µM
same,TGI,[17],5.82 µM
same,GI50,[18],6.48 µM
same,GI50,[19],4.55 µM
same,TGI,[19],> 100 µM
same,GI50,[20],9.71 µM
same,TGI,[20],> 31.6 µM
same,GI50,[21],4.03 µM
same,TGI,[21],> 31.5 µM
same,GI50,[22],5.19 µM
same,TGI,[22],> 100 µM
same,GI50,[23],4.24 µM
same,TGI,[23],> 30.1 µM
same,GI50,[24],> 60.4 µM
same,TGI,[24],> 100 µM
same,GI50,[25],6.15 µM
same,TGI,[25],43.5 µM
same,GI50,[26],> 100 µM
same,TGI,[26],> 100 µM
same,GI50,[27],3.64 µM
same,TGI,[27],9.09 µM
same,GI50,[28],1.95 µM
same,TGI,[28],4 µM
same,TGI,[29],9.91 µM
same,GI50,[30],> 23.3 µM
same,TGI,[30],> 100 µM
same,GI50,[31],3.48 µM
same,TGI,[31],> 31.6 µM
same,GI50,[32],> 26.1 µM
same,TGI,[32],> 100 µM
same,GI50,[33],4.51 µM
same,TGI,[33],> 100 µM
same,GI50,[34],5.94 µM
same,TGI,[34],> 31.6 µM
same,GI50,[35],19.3 µM
same,TGI,[35],> 100 µM
same,GI50,[36],> 73.3 µM
same,TGI,[36],> 100 µM
same,GI50,[37],4.8 µM
same,TGI,[37],> 100 µM
same,GI50,[38],> 100 µM
same,TGI,[38],> 100 µM
same,GI50,[39],2.11 µM
same,TGI,[39],6.34 µM
same,GI50,[40],0.962 µM
same,GI50,[41],5.25 µM
same,TGI,[41],16.9 µM
same,GI50,[42],4.62 µM
same,TGI,[42],47.4 µM
same,GI50,[43],3.55 µM
same,TGI,[43],> 44.5 µM
same,GI50,[44],> 100 µM
same,TGI,[44],> 100 µM
same,GI50,[45],5.75 µM
same,TGI,[45],> 100 µM
same,GI50,[46],2.62 µM
same,TGI,[46],> 100 µM
same,GI50,[47],5.32 µM
same,TGI,[47],> 100 µM
same,GI50,[48],> 100 µM
same,TGI,[48],> 100 µM
same,GI50,[49],0.0229 µM
same,TGI,[49],6.52 µM
same,GI50,[50],2.67 µM
same,TGI,[50],8.35 µM
same,GI50,[51],7.31 µM
same,GI50,[52],> 100 µM
same,TGI,[52],> 100 µM
same,GI50,[53],> 100 µM
same,TGI,[53],> 100 µM
same,GI50,[54],3.8 µM
same,TGI,[54],> 100 µM
same,GI50,[55],> 31 µM
same,TGI,[55],> 100 µM
Cc1ccc(S(=O)(=O)Oc2ccc3sc4cccc(NCCN(C)C)c4c(=O)c3c2)cc1,GI50,[1],> 100 µM
same,TGI,[1],> 100 µM
same,GI50,[2],> 100 µM
same,TGI,[2],> 100 µM
same,GI50,[3],1.85 µM
same,TGI,[3],3.34 µM
same,GI50,[4],1.73 µM
same,TGI,[4],3.14 µM
same,GI50,[5],1.86 µM
same,TGI,[5],3.28 µM
same,GI50,[6],1.65 µM
same,TGI,[6],3.04 µM
same,GI50,[7],1.7 µM
same,TGI,[7],3.11 µM
same,GI50,[8],1.94 µM
same,TGI,[8],3.4 µM
same,GI50,[9],1.97 µM
same,TGI,[9],3.43 µM
same,GI50,[10],1.85 µM
same,TGI,[10],3.28 µM
same,GI50,[11],1.24 µM
same,TGI,[11],2.51 µM
same,GI50,[12],1.83 µM
same,TGI,[12],3.3 µM
same,GI50,[13],> 100 µM
same,TGI,[13],> 100 µM
same,GI50,[14],0.787 µM
same,TGI,[14],2.06 µM
same,GI50,[15],2.1 µM
same,TGI,[15],3.56 µM
same,GI50,[16],1.9 µM
same,TGI,[16],3.32 µM
same,GI50,[17],1.92 µM
same,TGI,[17],3.35 µM
same,GI50,[18],1.71 µM
same,TGI,[18],3.1 µM
same,GI50,[19],1.65 µM
same,TGI,[19],3.01 µM
same,GI50,[56],1.91 µM
same,TGI,[56],3.33 µM
same,GI50,[20],1.79 µM
same,TGI,[20],3.23 µM
same,GI50,[21],1.78 µM
same,TGI,[21],3.2 µM
same,GI50,[22],2.05 µM
same,TGI,[22],3.49 µM
same,GI50,[23],1.89 µM
same,TGI,[23],3.31 µM
same,GI50,[24],1.38 µM
same,TGI,[24],2.71 µM
same,GI50,[26],1.78 µM
same,TGI,[26],3.18 µM
same,GI50,[27],2.49 µM
same,TGI,[27],3.96 µM
same,GI50,[28],1.59 µM
same,TGI,[28],2.95 µM
same,GI50,[29],1.7 µM
same,TGI,[29],3.08 µM
same,GI50,[30],1.99 µM
same,TGI,[30],3.42 µM
same,GI50,[57],2.03 µM
same,TGI,[57],3.48 µM
same,GI50,[31],1.72 µM
same,TGI,[31],3.22 µM
same,GI50,[32],> 100 µM
same,TGI,[32],> 100 µM
same,GI50,[33],1.83 µM
same,TGI,[33],3.24 µM
same,GI50,[34],1.91 µM
same,TGI,[34],3.33 µM
same,GI50,[35],> 100 µM
same,TGI,[35],> 100 µM
same,GI50,[37],2.11 µM
same,TGI,[37],3.59 µM
same,GI50,[38],1.81 µM
same,TGI,[38],3.22 µM
same,GI50,[39],2.28 µM
same,TGI,[39],3.75 µM
same,GI50,[40],1.93 µM
same,TGI,[40],3.36 µM
same,GI50,[41],2.2 µM
same,TGI,[41],3.67 µM
same,GI50,[42],> 100 µM
same,TGI,[42],> 100 µM
same,GI50,[43],1.86 µM
same,TGI,[43],3.29 µM
same,GI50,[58],1.99 µM
same,TGI,[58],3.42 µM
same,GI50,[44],1.95 µM
same,TGI,[44],3.38 µM
same,GI50,[45],1.29 µM
same,TGI,[45],2.58 µM
same,GI50,[46],1.64 µM
same,TGI,[46],3.02 µM
same,GI50,[47],1.91 µM
same,TGI,[47],3.33 µM
same,GI50,[48],2.08 µM
same,TGI,[48],3.54 µM
same,GI50,[49],2.09 µM
same,TGI,[49],3.53 µM
same,GI50,[51],1.88 µM
same,TGI,[51],3.35 µM
same,GI50,[52],> 100 µM
same,TGI,[52],> 100 µM
same,GI50,[59],2.07 µM
same,TGI,[59],3.54 µM
same,GI50,[53],1.89 µM
same,TGI,[53],3.3 µM
same,GI50,[54],1.94 µM
same,TGI,[54],3.38 µM
